These compounds were tested against fully phosphorylated, active Mouse ERK2 protein (Mus musculus, UniProt P63085) (assay: Active ERK2 assay (AERK2), IMAP format). Conditions: activated ERK2, IMAP fluorescence polarization, 30 μM ATP.
Sequence of fully phosphorylated, active Mouse ERK2 protein (P63085 whole entry): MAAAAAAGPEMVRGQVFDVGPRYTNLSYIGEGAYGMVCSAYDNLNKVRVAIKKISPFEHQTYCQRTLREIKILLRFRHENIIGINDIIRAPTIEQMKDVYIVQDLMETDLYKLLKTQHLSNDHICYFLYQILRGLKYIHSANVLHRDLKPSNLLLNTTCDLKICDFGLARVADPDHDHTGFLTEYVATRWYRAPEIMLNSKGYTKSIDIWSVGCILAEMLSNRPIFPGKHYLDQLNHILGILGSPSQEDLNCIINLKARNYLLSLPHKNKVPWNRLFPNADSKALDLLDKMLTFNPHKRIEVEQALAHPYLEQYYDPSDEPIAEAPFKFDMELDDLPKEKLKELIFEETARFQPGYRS
Format: biochemical
Experimental: 14 μl of kinase buffer (10 mM Tris.HCl pH 7.2, 10 mM MgCl2, 0.01% Tween-20, 1 mM DTT) containing 0.4 ng unphosphorylated Mouse ERK2 protein was added to each well of a black 384-well assay plate. […] DMSO concentration during initial incubation is 6.7%. […] DMSO concentration during ERK activation was 4%. After one hour, reactions were terminated by addition of 60 μl IMAP detections beads in binding buffer (Molecular Devices). Binding was allowed to equilibrate for 30 minutes before reading the plate on an LJL Analyst Fluorescence Polarization plate reader.
Activated ERK2 activity was also determined in the IMAP assay format using the procedure outlined above. […] Reactions proceeded for 30 minutes before termination by addition of 60 μl IMAP detection beads in binding buffer. Plates were read as above after 30 minute binding equilibration.
Work on `C/C(=N\O)c1cnc(-c2ccc(N3CCN(C(=O)CN4CC[C@@H](C(=O)Nc5ccc(O)c(Cl)c5)C4)CC3)cc2)nc1` [Example 23] yielded an IC50 of 57 nM. `CC(=O)c1cnc(-c2ccc(N3CCN(C(=O)CN4CC[C@@H](C(=O)Nc5ccc(O)c(Cl)c5)C4)CC3)cc2)nc1` [Example 20] was tested, and the IC50 was 44 nM. In the case of `CO/N=C(\C)c1cnc(-c2ccc(N3CCN(C(=O)CN4CC[C@@H](C(=O)Nc5ccc(O)c(Cl)c5)C4)CC3)cc2)nc1` [Example 25], the IC50 is reported as 18 nM. `O=C(Nc1ccc(O)c(-c2ccc(F)cc2)c1)[C@@H]1CCN(CC(=O)N2CCN(c3ccc(-c4ncccn4)cc3)CC2)C1` [Example 212] showed an IC50 of 53 nM. `CC(C)c1cc(NC(=O)[C@@H]2CCN(CC(=O)N3C[C@@H]4C[C@H]3CN4c3ccc(-c4ncccn4)cc3)C2)ccc1O` [Example 196] showed an IC50 of 38 nM. `CC(C)c1cc(NC(=O)[C@@H]2CCN(CC(=O)N3C[C@@H]4C[C@H]3CN4c3ccc(-c4cnccn4)cc3)C2)ccc1O` [Example 197] gave an IC50 of 40 nM. Compound `O=C(Nc1ccc(O)c(Cl)c1)[C@@H]1CCN(CC(=O)N2C[C@@H]3C[C@H]2CN3c2ccc(-c3ncccn3)cc2)C1` [Example 19] has an IC50 of 34 nM. Compound `O=C(Nc1ccc(O)c(C(F)(F)F)c1)[C@@H]1CCN(CC(=O)N2CCN(c3ccc(-c4ncccn4)cc3)CC2)C1` [Example 1] has an IC50 of 76 nM. With `O=C(Nc1ccc(O)c(C2CC2)c1)[C@@H]1CCN(CC(=O)N2CCN(c3ccc(-c4ncccn4)cc3)CC2)C1` [Example 119] the IC50 was 39 nM.
